{"source": "patent US10000500B2", "about": "(PROMEGA CORPORATION, priority 2016, dated 2018)", "target": "NANOLUC® Luciferase (Oplophorus gracilirostris, UniProt Q9GV45, A31E/A60N/A81I/F95D/I117V/K70R/L54V/L99Q/M102K/N193R/P142E/Q151K/Q38R/Q45L/V71I/Y165I)", "sequence (Q9GV45 28-196 with tags or gaps with the stated changes limits assumed)": "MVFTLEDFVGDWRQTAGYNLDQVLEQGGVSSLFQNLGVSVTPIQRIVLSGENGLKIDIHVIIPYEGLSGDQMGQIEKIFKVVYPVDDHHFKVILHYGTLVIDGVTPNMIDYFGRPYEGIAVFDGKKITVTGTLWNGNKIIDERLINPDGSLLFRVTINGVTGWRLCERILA", "test": "Km and Vmax substrate titration with NanoLuc luciferase (Example 8)", "assay_type": "biochemical", "details": "NanoLuc 4 ng/ml; Renilla Glo buffer; Michaelis-Menten fit", "protocol": "Each compound to be screened was diluted to a concentration of 100 uM in Renilla Glo Luciferase Assay buffer (Promega Corporation) and then further diluted to 2×serial dilution in Renilla Glo Luciferase Assay Buffer. NANOLUC® luciferase and Renilla luciferase were diluted to a concentration of 4 ng/ml in OptiMEM+0.1% FBS. 50 ul of each compound dilution was then mixed with 50 ul of each enzyme dilution and incubated for 1 minute at room temperature. Light output for each compound was measured on a GLOMAX®-Multi+ luminometer. Km and Vmax were calculated for each enzyme/substrate combination using a GraphPad Prism Michaelis-Menten non-linear fit (FIGS. 1A-ID).", "data": [{"smiles": "O=c1c(Cc2ccco2)nc2c(Cc3ccccc3)[nH]c(-c3ccccc3)cn1-2", "note": "[Furimazine, 8-benzyl-2-(furan-2-ylmethyl)-6-phenylimidazo[1,2-a]pyrazin-3(7H)-one]", "values": [{"measurement": "Km", "value": 9.37, "unit": "µM"}]}]}
